Test results taken from article PMC6561935, “Hsp90 middle domain phosphorylation initiates a complex conformational program to recruit the ATPase-stimulating cochaperone Aha1” (Nature Communications, 2019).

Assays:
Hsp90 (human Hsp90α) [1] = target: T1, Hsp90 (human Hsp90α) (Homo sapiens, UniProt P07900, H210A); assay: isothermal titration calorimetry; format: binding
T1 construct: gene HSP90AA1; purified full-length Hsp90α, C-terminally dimerized homodimer

Hsp90 (human Hsp90α) [2] = target: T2, Hsp90 (human Hsp90α) (Homo sapiens, UniProt P07900); assay: isothermal titration calorimetry; format: binding
T2 construct: gene HSP90AA1; purified full-length Hsp90α, C-terminally dimerized homodimer

Nc1ncnc2c1ncn2[C@@H]1O[C@H](COP(=O)(O)OP(=O)(O)NP(=O)(O)O)[C@@H](O)[C@H]1O [AMPPNP]
Kd (Hsp90 (human Hsp90α) [1]): 170 ± 9.8 µM | Kd (Hsp90 (human Hsp90α) [2]): 220 ± 37 µM
